Results published in patent US8829014B2, “Thiazole and thiophene analogues, and their use in treating autoimmune diseases and cancers” (Board of Supervisors of Louisiana State University and …, priority 2006, dated 2014).

These compounds were tested on carageenan-induced edema (assay: Carrageenan-induced rat paw edema test (anti-inflammatory activity)). Settings: Rattus norvegicus, po, 3 h, rat paw edema, 50 mg/kg, reading 3 hours after carrageenan; [(Control−Test)/Control]×100%; read-out: % Protection P.
Format: in vivo, Sprague-Dawley rats
Description: Sprague-Dawley rats, male and female, 150-250 g will be used in an edema test. Rats will be deprived of food but not water for 18 hours prior to the experiment. The test compounds will be administered with a blunt-tipped needle orally, 50 mg/kg, as a suspension in 0.1% sodium CMC (carboxymethylcellulose) vehicle. Alternatively, the test compounds will be injected intravenously, subcutaneously, or intraperitoneally. One hour later, 0.1 ml of a 1% carrageenan solution in saline will be injected in the sub-plantar region of the right hind paw of each rat. […] The reading will be repeated 3 hours later. The displacement readings give a measure of carageenan-induced edema. Any reduction in carageenan-induced edema with a test compound, as compared to saline control, is a measure of the anti-inflammatory activity of the test compound. The percentage protection at 50-mg/kg doses was calculated according to the following formula: % Protection=[(Control−Test)/Control]×100%.
Following treatment, the media from the VSMC and HUVEC incubations were removed, and the amount of lactate dehydrogenase (LDH) released into the medium was determined with a commercial kit and expressed as a % increase over vehicle-treated cells. HPT toxicity was determined by the ethidium homodimer (EthHD) uptake assay. […] The lead compounds were also tested in two pairs of cell lines from the skin or prostate, one tumorigenic and one non-tumorigenic, to test for differing toxicity or heightened sensitivity in the tumorigenic lines. The cells were treated for 48 h with vehicle (0.1% DMSO) or 10 μM of each drug candidate, and the viability of the cells was determined by the MTT assay, expressed as a % decrease in viability compared to vehicle-treated cells. The in vivo inflammation model measured the % inhibition of rat paw edema induced by carageenan injection.

Row | Compound | inhibition in vivo at 50 mg/kg [%]
1 | CCN(CC)C(/C=N/C(=S)NC(=O)c1ccccc1)c1ccccc1 (stereo not drawn) [Example 38, 1-Benzoyl-3-[1-diethylamino-1-phenyl-eth-(E)-ylidene]-thiourea] | 10.9
2 | O=C(c1ccccc1)c1cc(-c2ccccc2)c(N2CCOCC2)s1 [Example 42, (5-Morpholin-4-yl-4-phenyl-thiophen-2-yl)-phenyl-methanone] | 53.5
3 | O=C(c1ccc(Cl)cc1)c1cc(-c2ccccc2)c(N2CCOCC2)s1 [Example 45, (4-Chloro-phenyl)-(5-morpholin-4-yl-4-phenyl-thiophene-2-yl)-methanone] | 53.5
4 | O=C(c1cc(-c2ccccc2)c(N2CCOCC2)s1)c1ccc(Cl)cc1Cl [Example 46, (2,4-Dichloro-phenyl)-(5-morpholin-4-yl-4-phenyl-thiophene-2-yl)-methanone] | 68.3
5 | CS(=O)(=O)c1ccc(C(=O)c2cc(-c3ccccc3)c(N3CCOCC3)s2)cc1 [Example 48, (4-Methylsulfonyl-phenyl)-(5-morpholin-4-yl-4-phenyl-thiophene-2-yl)-methanone] | 30
6 | O=C(c1cccnc1)c1cc(-c2ccccc2)c(N2CCOCC2)s1 [Example 50, (5-Morpholin-4-yl-4-phenyl-thiophene-2-yl)-pyridine-3-yl-methanone] | 6.9
7 | CS(=O)(=O)c1ccc(-c2cc(C(=O)c3ccccc3)sc2N2CCOCC2)cc1 [Example 54, [4-(4-Methanesulfonyl-phenyl)-5-morpholin-4-yl-thiophene-2-yl]-phenyl-methanone] | 17.8
8 | Cc1ccc(C(=O)c2cc(-c3ccc(S(C)(=O)=O)cc3)c(N3CCOCC3)s2)cc1 [Example 55, [4-(4-Methanesulfonyl-phenyl)-5-morpholin-4-yl-thiophene-2-yl]-p-tolyl-methanone] | -13.5
9 | CS(=O)(=O)c1ccc(-c2cc(C(=O)c3ccc(Cl)cc3)sc2N2CCOCC2)cc1 [Example 57, (4-Chloro-phenyl)-[4-(4-methanesulfonyl-phenyl)-5-morpholin-4-yl-thiophen-2-yl]-methanone] | 26.9
10 | CS(=O)(=O)c1ccc(-c2cc(C(=O)c3ccc(Cl)cc3Cl)sc2N2CCOCC2)cc1 [Example 58, (2,4-Dichloro-phenyl)-[4-(4-methanesulfonyl-phenyl)-5-morpholin-4-yl-thiophen-2-yl]-methanone] | 50
11 | CSc1ccc(C(=O)c2cc(-c3ccc(S(C)(=O)=O)cc3)c(N3CCOCC3)s2)cc1 [Example 59, [4-(4-Methanesulfonyl-phenyl)-5-morpholin-4-yl-thiophene-2-yl]-(4-methylsulfanyl-phenyl)-methanone] | 45.8
12 | CS(=O)(=O)c1ccc(C(=O)c2cc(-c3ccc(S(C)(=O)=O)cc3)c(N3CCOCC3)s2)cc1 [Example 60, (4-Methanesulfonyl-phenyl)-[4-(4-methansulfonyl-phenyl)5-morpholin-4-yl-thiophene-2-yl]-methanone] | 59.9
13 | CC(=O)Nc1ccc(C(=O)c2cc(-c3ccc(S(C)(=O)=O)cc3)c(N3CCOCC3)s2)cc1 [Example 61, N-{4-[4-(4-Methansulfonyl-phenyl)-5-morpholin-4-yl-thiophene-2carbonyl]-phenyl}-acetamide] | 25
14 | CS(=O)(=O)c1ccc(-c2cc(C(=O)c3cccnc3)sc2N2CCOCC2)cc1 [Example 62, [4-(4-Methanesulfonyl-phenyl)-5-morpholin-4-yl-thiophene-2-yl]-pyridin-3-yl-methanone] | 0
15 | CC(=O)Nc1ccc(-c2cc(C(=O)c3ccc(C)cc3)sc2N2CCOCC2)cc1 [Example 67, N-{4-[5-(4-Methyl-benzoyl)-2-morpholin-4-yl-thiophene-3-yl]-phenyl}-acetamide] | 7.67
16 | COc1ccc(C(=O)c2cc(-c3ccc(NC(C)=O)cc3)c(N3CCOCC3)s2)cc1 [Example 68, N-{4-[5-(4-Methoxy-benzoyl)-2-morpholin-4-yl-thiophene-3-yl]-phenyl}-acetamide] | 40
17 | CC(=O)Nc1ccc(-c2cc(C(=O)c3ccc(Cl)cc3)sc2N2CCOCC2)cc1 [Example 69, N-{4-[5-(4-Chloro-benzoyl)-2-morpholin-4-yl-thiophene-3-yl]-phenyl}-acetamide] | -21.8
18 | CC(=O)Nc1ccc(-c2cc(C(=O)c3ccc(S(C)(=O)=O)cc3)sc2N2CCOCC2)cc1 [Example 72, N-{4-[5-(4-Methansulfonyl-benzoyl)-2-morpholin-4-yl-thiophene-3-yl]-phenyl}-acetamide] | 50
19 | CC(=O)Nc1ccc(-c2cc(C(=O)c3cccnc3)sc2N2CCOCC2)cc1 [Example 74, N-{4-[2-Morpholin-4-yl-5-(pyridine-3-carbonyl)-thiophene-3-yl]-phenyl}-acetamide] | 34
20 | O=C(c1ccccc1)c1cc(-c2ccc(Cl)cc2)c(N2CCOCC2)s1 [Example 78, [4-(4-Chloro-phenyl)-5-morpholin-4-yl-thiophen-2-yl]-phenyl-methanone] | -48.3
21 | Cc1ccc(C(=O)c2cc(-c3ccc(Cl)cc3)c(N3CCOCC3)s2)cc1 [Example 79, [4-(4-Chloro-phenyl)-5-morpholin-4-yl-thiophen-2-yl]-p-tolyl-methanone] | -31
22 | O=C(c1ccc(Cl)cc1)c1cc(-c2ccc(Cl)cc2)c(N2CCOCC2)s1 [Example 81, (4-Chloro-phenyl)-[4-(4-chloro-phenyl)-5-morpholin-4-yl-thiophen-2-yl]-methanone] | 20
23 | O=C(c1ccncc1)c1cc(-c2ccc(Cl)cc2)c(N2CCOCC2)s1 [Example 87, [4-(4-Chloro-phenyl)-5-morpholin-4-yl-thiophen-2-yl]-pyridin-4-yl-methanone] | 35
24 | COc1c(C)cc(-c2cc(-c3cccnc3)c(N3CCOCC3)s2)nc1C [Example 88, 4-[5-(5-Methoxy-4,6-dimethyl-pyridin-2-yl)-3-pyridin-3-yl-thiophen-2-yl]-morpholine] | -18.1
25 | COc1ccc(C(=O)c2cc(-c3cccnc3)c(N3CCOCC3)s2)cc1 [Example 92, (4-Methoxy-phenyl)-(5-morpholin-4-yl-4-pyridin-3-yl-thiophen-2-yl)methanone] | 69
26 | O=C(c1ccc(Cl)cc1)c1cc(-c2cccnc2)c(N2CCOCC2)s1 [Example 93, (4-Chloro-phenyl)-(5-morpholin-4-yl-4-pyridin-3-yl-thiophen-2-yl)-methanone] | 0
27 | O=C(c1cc(-c2cccnc2)c(N2CCOCC2)s1)c1ccc(Cl)cc1Cl [Example 94, (2,4-Dichloro-phenyl)-(5-morpholin-4-yl-4-pyridin-3-yl-thiophen-2-yl)-methanone] | -51.4
28 | CC(=O)Nc1ccc(C(=O)c2cc(-c3cccnc3)c(N3CCOCC3)s2)cc1 [Example 97, N-[4-(5-Morpholin-4-yl-4-pyridin-3-yl-thiophen-2-carbonyl)-phenyl]-acetamide] | 46.8
29 | O=C(c1cccnc1)c1cc(-c2cccnc2)c(N2CCOCC2)s1 [Example 98, (5-Morpholin-4-yl-4-pyridin-3-yl-thiophen-2-yl)-pyridin-3-yl-methanone] | 42
30 | O=C(c1ccncc1)c1cc(-c2cccnc2)c(N2CCOCC2)s1 [Example 99, (5-Morpholin-4-yl-4-pyridin-3-yl-thiophen-2-yl)-pyridin-4-yl-methanone] | 26

Same assay, conditions: rat paw edema, 50 mg/kg, reading 3 hours after carrageenan; [(Control−Test)/Control]×100%

Row | Compound | % Protection P [%]
31 | 4-[3-Phenyl-5-(4,5,6-trimethoxy-pyridine-2-yl)-thiophen-2-yl]-morpholine [Example 39] | 19.65
32 | 4-{3-(4-Chloro-phenyl)-5-[5-methyl-4-(2,2,2-trifluoro-ethoxy)-pyridin-2-yl]-thiophen-2-yl}-morpholine [Example 77] | 23
33 | 4-{5-[5-Methyl5-(2,2,2-trifluoro-ethoxy)-pyridin-2-yl]-3-pyridin-4-yl-thiphen-2-yl}-morpholine [Example 101] | 47
34 | 4-{5-[5-Methyl-5-(2,2,2-trifluoro-ethoxy)-pyridin-2-yl]-3-pyridin-3-yl-thiphen-2-yl}-morpholine [Example 89] | −18.05
35 | CC(=O)Nc1ccc(-c2cc(C(=O)c3cc(OCC(F)(F)F)c(C)cn3)sc2N2CCOCC2)cc1 [Example 65, N(4-{5-[5-Methyl-4-(2,2,2-trifluoro-ethoxy)-pyridine-2-carbonyl]-2-morpholin-4-yl-thiophen-3-yl}-phenyl)-acetamide] | 30
36 | CSc1ccc(C(=O)c2cc(-c3ccc(Cl)cc3)c(N3CCOCC3)s2)cc1 [Example 83, [4-(4-Chloro-phenyl)-5-morpholin-4-yl-thiophen-2-yl]-(4-methansulfanyl-phenyl)-methanone] | 27
